Question: For CCc1ccc(CCOc2ccc(CC3SC(=O)NC3=O)cc2)nc1.Cl (stereo not drawn), which solubility (mole fraction) (in DMF, 278.15 K) is on record?
Answer: 0.0161

Question: And the solubility (mole fraction) (in DMF, 283.15 K)?
Answer: 0.017

Question: What about the solubility (mole fraction) (in DMF, 288.15 K) of the same molecule?
Answer: 0.0183

Question: What about the solubility (mole fraction) (in DMF, 293.15 K) of the same molecule?
Answer: 0.0194

Question: And the solubility (mole fraction) (in DMF, 298.15 K)?
Answer: 0.021

Question: And the solubility (mole fraction) (in DMF, 303.15 K)?
Answer: 0.0227

Question: And the solubility (mole fraction) (in DMF, 308.15 K)?
Answer: 0.0247

Question: And the solubility (mole fraction) (in DMF, 313.15 K)?
Answer: 0.0269

Question: And the solubility (mole fraction) (in DMF, 318.15 K)?
Answer: 0.0292

Question: What about the solubility (mole fraction) (in DMF, 323.15 K) of the same molecule?
Answer: 0.0323

Question: And the solubility (mole fraction) (in acetic acid, 288.15 K)?
Answer: 0.00108

Question: What about the solubility (mole fraction) (in acetic acid, 293.15 K) of the same molecule?
Answer: 0.0015

Question: What about the solubility (mole fraction) (in acetic acid, 298.15 K) of the same molecule?
Answer: 0.00203

Question: And the solubility (mole fraction) (in acetic acid, 303.15 K)?
Answer: 0.00276

Question: And the solubility (mole fraction) (in acetic acid, 308.15 K)?
Answer: 0.0038

Question: And the solubility (mole fraction) (in acetic acid, 313.15 K)?
Answer: 0.00558

Question: What about the solubility (mole fraction) (in acetic acid, 318.15 K) of the same molecule?
Answer: 0.00804

Question: What about the solubility (mole fraction) (in acetic acid, 323.15 K) of the same molecule?
Answer: 0.0118

Question: What about the solubility (mole fraction) (in ethanol, 278.15 K) of the same molecule?
Answer: 0.000535

Question: And the solubility (mole fraction) (in ethanol, 284.15 K)?
Answer: 0.000626

Question: And the solubility (mole fraction) (in ethanol, 288.15 K)?
Answer: 0.000723

Question: And the solubility (mole fraction) (in ethanol, 293.15 K)?
Answer: 0.000879

Question: What about the solubility (mole fraction) (in ethanol, 298.15 K) of the same molecule?
Answer: 0.00103

Question: What about the solubility (mole fraction) (in ethanol, 303.15 K) of the same molecule?
Answer: 0.00121

Question: What about the solubility (mole fraction) (in ethanol, 308.15 K) of the same molecule?
Answer: 0.00147

Question: And the solubility (mole fraction) (in ethanol, 313.15 K)?
Answer: 0.00178

Question: And the solubility (mole fraction) (in ethanol, 318.15 K)?
Answer: 0.00222

Question: What about the solubility (mole fraction) (in ethanol, 323.15 K) of the same molecule?
Answer: 0.00266

Question: And the solubility (mole fraction) (in methanol, 278.15 K)?
Answer: 0.004

Question: And the solubility (mole fraction) (in methanol, 283.15 K)?
Answer: 0.00494

Question: And the solubility (mole fraction) (in methanol, 288.15 K)?
Answer: 0.00615

Question: And the solubility (mole fraction) (in methanol, 293.15 K)?
Answer: 0.00738

Question: What about the solubility (mole fraction) (in methanol, 298.15 K) of the same molecule?
Answer: 0.0086

Question: What about the solubility (mole fraction) (in methanol, 303.15 K) of the same molecule?
Answer: 0.0101

Question: And the solubility (mole fraction) (in methanol, 308.15 K)?
Answer: 0.0121

Question: What about the solubility (mole fraction) (in methanol, 313.15 K) of the same molecule?
Answer: 0.0144

Question: And the solubility (mole fraction) (in methanol, 318.15 K)?
Answer: 0.0173

Question: What about the solubility (mole fraction) (in methanol, 323.15 K) of the same molecule?
Answer: 0.0211

Question: And the solubility (mole fraction) (in n-propanol, 278.15 K)?
Answer: 0.000325

Question: What about the solubility (mole fraction) (in n-propanol, 283.15 K) of the same molecule?
Answer: 0.000395

Question: What about the solubility (mole fraction) (in n-propanol, 288.15 K) of the same molecule?
Answer: 0.000456

Question: What about the solubility (mole fraction) (in n-propanol, 293.15 K) of the same molecule?
Answer: 0.000522

Question: What about the solubility (mole fraction) (in n-propanol, 298.15 K) of the same molecule?
Answer: 0.00063

Question: What about the solubility (mole fraction) (in n-propanol, 303.15 K) of the same molecule?
Answer: 0.00075

Question: And the solubility (mole fraction) (in n-propanol, 308.15 K)?
Answer: 0.00088

Question: And the solubility (mole fraction) (in n-propanol, 313.15 K)?
Answer: 0.00104

Question: What about the solubility (mole fraction) (in n-propanol, 318.15 K) of the same molecule?
Answer: 0.00127

Question: And the solubility (mole fraction) (in n-propanol, 323.15 K)?
Answer: 0.00149
